Assay results published in patent EP4782434A1, “N-SULFONYL CARBOXAMIDE COMPOUND, AND PREPARATION METHOD THEREFOR AND USE THEREOF” (Nutshell Therapeutics (Shanghai) Co., Ltd., priority 2023, dated 2025).
Converted amounts (≈) assume the structure as drawn.

Key:
[1] = Thermodynamic solubility determination in FaSSIF; format: physicochemical; settings: thermodynamic from solid, FaSSIF pH 6.5, 37°C
Protocol: • (1) The control compound, diclofenac sodium, was purchased from Sigma. • (2) FaSSIF, FeSSIF & FaSSGF (FFF02) powders were purchased from Biorelevant. • (3) 1.5 mL flat-bottom glass vials (purchased from local suppliers); PTFE/silicone septa (BioTech Solutions); PTFE-coated stir bars (V&P Scientific); MultiScreenHTS HV (0.45 µm) 96-well plates (Millipore, MSHVN4510 or MSHVN4550); Eppendorf Thermomixer Comfort; Vacuum Manifold ORVMN96 (Orochem).
0.420 g of NaOH, 3.438 g of NaH2PO4, and 6.186 g of NaCl were dissolved in approximately 900 mL of ultrapure water, and the pH of the solution was adjusted to 6.5 using 1N NaOH or 1N HCl. The solution was then diluted to 1000 mL with ultrapure water at room temperature.
2.240 g of FaSSIF, FeSSIF, and FaSSGF powder was added to approximately 500 mL of Buffer A. The mixture was stirred until the powder was completely dissolved. The solution was then diluted to 1000 mL with Buffer A at room temperature.
The solution was allowed to stand for 2 hours. The solution became slightly opalescent and was ready for use at that point. Note: it was to be used within 48 hours at room temperature or within 24 hours at 37°C.
(2) The test compounds and control compounds were weighed for solubility measurement (approximately 1.0 mg each in three separate 1.5 mL glass vials).
(3) For each compound, one vial served as a standard, and the other two vials were used for solubility measurement in duplicate.
(4) Each compound was placed sequentially into its appropriate 96-well plate. One plate served as the standard plate and the other as the sample plate.
(5) Based on the mass of the sample in each vial on the sample plate, an appropriate volume (approximately 1000 µL) of FaSSIF was added to each vial of the solubility sample plate using a pipette. […]
All calculations were performed using Microsoft Excel. Analysis and quantification of the sample filtrates were completed via LC-MS/MS by qualitative and quantitative comparison against the peaks of standards with known concentrations. […]

[2] = system: Theta-mediated end joining (TMEJ) process in HEK293T cells; assay: TMEJ reporter assay (NanoGlo luciferase); format: cell-based; settings: Homo sapiens, HEK-293T, HEK293T cells electroporated with TMEJ substrate, 24 hours
Protocol: The inhibitory effect of the compounds on the Theta-mediated end joining (TMEJ) process was evaluated.
(1) HEK293T cells were cultured in DMEM supplemented with 10% heat-inactivated fetal bovine serum (FBS) and 1% penicillin-streptomycin (PS). (2) Prior to startup, the Neon transfection system was disinfected, and E2 and R buffers were equilibrated to room temperature. (3) Culture medium without antibiotics was pre-warmed. (4) Cells in the flask reaching 80-90% confluency were trypsinized, neutralized with culture medium, centrifuged, and counted. (5) For transfection using a 100 µL electroporation tip, 2 × 10^6 cells were taken, washed once with DPBS (without Mg^2+ and Ca^2+), centrifuged at 1000 rpm for 5 min, and the supernatant was discarded. The number of cells and volume may be increased as required. (6) The Neon system was set up; a Neon tube was inserted into the Neon pipette and E2 buffer was added. (7) 10 µg of TMEJ substrate was added to 100 µL of R solution; the volume may be increased as required. (8) Cells were resuspended in DNA buffer, and electroporation was initiated according to the following parameters:
(9) The cells were loaded into antibiotic-free culture medium and mixed gently. (10) Steps (8)-(9) were repeated as necessary, and cells were seeded into 384-well plates at a density of 40,000 cells/well in 40 µL of culture medium. (11) The plates were incubated in a humidified CO2 incubator at 37°C for 24 hours. (12) NanoGlo reagent was warmed to room temperature, and NanoGlo buffer was mixed with the substrate at a ratio of 50:1. (13) The cell culture plates were equilibrated at room temperature for 10 minutes. (14) 40 µL of NanoGlo substrate buffer was added to each well, followed by shaking at 300 rpm for 3 minutes protected from light. (15) Signals were read via a BMG PHERAstar FSX.

| solubility at 24 h [1] [µg/mL] | solubility ([1]; 24 hours) [µg/mL] | SMILES | IC50 [2] [nM] |
| --- | --- | --- | --- |
| 511 (≈ 1030 µM) | – | [2H]C([2H])([2H])O[C@@H](C)c1ccc(CS(=O)(=O)NC(=O)c2ccc(C([2H])([2H])[2H])cc2-c2cc(Cl)ncc2OC)cc1 [cpd-17, (S)-2-(2-Chloro-5-methoxypyridin-4-yl)-N-((4-(1-(methoxy-d3)ethyl)benzyl)sulfonyl)-4-(methyl-d3)benzamide] | 1.8 |
| 669 (≈ 1310 µM) | – | [2H]C([2H])([2H])O[C@@H](C)c1ccc(CS(=O)(=O)NC(=O)c2ccc(C([2H])([2H])[2H])cc2-c2cc(C(F)F)ncc2OC)cc1 [cpd-16, (S)-2-(2-(Difluoromethyl)-5-methoxypyridin-4-yl)-N-((4-(1-(methoxy-d3)ethyl)benzyl)sulfonyl)-4-(methyl-d3)benzamide] | 2 |
| – | 31 (≈ 64.9 µM) | COc1cnc(Cl)cc1-c1cc(C)ncc1C(=O)Nc1nnc(OC[C@H]2COCCO2)s1 [Ref. 1, reference compound] | 5 |
